Measurements reported in article PMC9365994, “Small molecules to regulate the GH/IGF1 axis by inhibiting the growth hormone receptor synthesis” (Frontiers in Endocrinology, 2022).

Assays:
[1] = system: Colo-205 human colon cancer line; experiment: Cell proliferation assay (CyQuant), Colo-205; assay type: cell-based
Source text: (§1) Based on these 2 compounds, Specs selected a new set of 109 structural analogues ( Supplementary Data 3 ). Twenty-one compounds tested positive in the primary screen protocol. […] ( Figures S12, S13 ). The 14 active drugs are depicted in Figure 4 . In the final test, the 5 best compounds (BM001-BM005) were screened for their […] effect on cancer cells. We used the triple-negative human breast cancer line, MDA-MM-231 (MM231) and the human colon cancer line Colo-205, and quantified DNA in vital cells ( Figure 5B ). Dose-response curves were made after 24, 48 & 72 h. The 5 drugs inhibited both cell lines relatively equal to the dose-response curves monitoring pGHR tails, pJak2, and pSTAT5 ( Figure S13 and Figure S14 ) with IC50 values varying from 30-200 nM ( Figure 5 ). […]
(§2) fos-GHRct phosphorylation (Fig. S12), a remarkable hit rate of […]. Next, we determined the dose-response effect (IC50) of these 21 new compounds on pY-levels of fos-GHRct. The compounds were divided in four categories: no dose-response effect (6), effect less than […]
(§3) plateaued at 200 units of relative fluorescence intensity. […]
(§4) protocol. […]
(§5) Next, we assessed the effect of the best 5 lead compounds (BM001-BM005) for the inhibition of cell proliferation/induction or cell death. […] With a standard green filter set the fluorescence from the nuclei is quantified in a multi-well plate spectrophotometer. […]

[2] = system: MDA-MM-231 (MM231) triple-negative human breast cancer line; experiment: Cell proliferation assay (CyQuant), MDA-MM-231; assay type: cell-based
Source text: as §1, §2, §3, §4, §5

[3] = Glucose and insulin levels in a dog experiment; assay type: in vivo; conditions: data not shown
fos-GHRct = molecular target: T1, fos-GHRct (Oryctolagus cuniculus, UniProt P19941); experiment: In vitro translation of fos-GHRct in HeLa cell cell-free system; assay type: biochemical; conditions: Figure 7B
T1 sequence (P19941 288-638): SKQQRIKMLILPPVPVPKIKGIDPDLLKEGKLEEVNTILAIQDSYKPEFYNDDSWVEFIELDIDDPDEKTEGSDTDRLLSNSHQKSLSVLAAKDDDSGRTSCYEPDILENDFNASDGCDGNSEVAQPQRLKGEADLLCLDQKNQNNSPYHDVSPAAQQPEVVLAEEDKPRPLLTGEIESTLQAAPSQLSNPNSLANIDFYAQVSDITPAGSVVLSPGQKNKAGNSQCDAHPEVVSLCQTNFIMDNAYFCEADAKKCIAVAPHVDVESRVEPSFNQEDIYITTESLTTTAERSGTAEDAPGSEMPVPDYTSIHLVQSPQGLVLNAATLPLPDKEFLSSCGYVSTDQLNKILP
Source text: pcDNA3 vector DNA expressing Fos-zippered GHR cytosolic tails as described in ([32]) was used in a cell-free translation system, based on HeLa cell extract (Promega). Empty vector (pcDNA) was used as control. The blots were detected with an anti-GHR antibody raised in rabbits against GHR cytosolic tails.
To decide between these possibilities, we performed in vitro translation experiments.
This experiment represents the results of 6 independent repeats. […] In the right panel the 4 proline residues in box-1 were replaced by alanine residues. Empty vector (pcDNA) was used as control. The blots were detected with anti-GHR(B).

[4] = Liver weight, body weight and side effects in xenografted mice; assay type: in vivo
Method: BM001, BM002, and BM003 were used in mice xenografted with MM231 breast cancer cells that are GH-responsive both for growth and drug resistance ([42]–[45]). The cells were orthotopically grafted into the inguinal mammary gland, and drug treatments started when tumors reached a volume of >50 mm^3. We used a treatment regimen of 3 injections per week (1 and 5 mg/kg) during 3 weeks (9 mice/group) ( Figure 6 ). Animals were killed when tumor volume exceeded 150 mm^3 or mice presented lung metastasis upon bioluminescence imaging measurements. […] Drug withdrawal effects were not studied until now. […] We observed no adverse side effects neither on appetite and behavior ([46]). […] We next assessed if the identified drugs indeed target the GH/IGF1 pathway and consequently, if they result in a decrease in liver weight and IGF1 levels, as observed in GHR knockout mice and Laron patients ([47]).

glucose levels [3] | insulin levels [3] | concentration inhibiting the synthesis of fos-GHRct (fos-GHRct) | SMILES | effect on cell proliferation (in words) [1] | effect on cell proliferation (in words) [2] | Liver weight ([4]; 1 mg/kg) | Liver weight ([4]; 5 mg/kg) | reduction of liver weight ([4]; 3 injections per week, 3 weeks) | total body weights ([4]; 3 weeks treatment) | liver weight (in words) ([4]; Figure 6E)
 |  |  | N#CC[C@H](C1CCCC1)n1cc(-c2ncnc3[nH]ccc23)cn1 [Ruxolitinib, reference compound] | no effect | no effect |  |  |  |  | 
did neither affect | did neither affect | 0.1 to 1 µM | Cc1nc(N)nc(N)c1/C=C/C1(c2ccc(C(F)(F)F)cc2)CC1 [BM001] |  |  | 1041 mg | 1038 mg | 16% | remained the same | dose-dependent reduction
